Experimental data published in patent publication US11826358B2, “Locally-induced adipose tissue browning by microneedle patch for obesity treatment” (NORTH CAROLINA STATE UNIVERSITY, priority 2017, dated 2023).

Experiments:
[1] = test system: 3T3-L1 adipocytes; assay: Browning in fully differentiated 3T3-L1 adipocytes (Q-PCR); format: cell-based
Text: To validate the efficiency of Rosi NPs, an in vitro adipocyte model PgKO-PPARγ1 was used in which the reconstitution of a shorter form of PPARγ (γ1) in Ppar^−/− mouse embryonic fibroblast (MEF) rescues adipocyte differentiation only in the presence of exogenous Thiazolidinedione class of ligand (e.g. Rosi). […] In addition to adipogenic potential, the browning capacity of Rosi NPs was also compared. In fully differentiated 3T3-L1 adipocytes, Rosi NPs behaved the same as nude Rosi to up-regulate brown adipocyte markers Elovl3 and Cidea as well as to repress white adipocyte genes Resistin and Adipsin (FIG. 2g). Therefore, the disclosed nanoparticalization strategy can sustain a constant release of Rosi at physiological levels of glucose without affecting its efficiency.
RNA was extracted from tissues or cells by combining TriZol reagent and NucleoSpin RNA kit with DNase I digestion (Macherey-Nagel), following the manufacturer's instructions. 1 μg total RNA was used to synthesize cDNA by using the High-capacity cDNA Reverse Transcription kit (Applied Biosystems). Quantitative real-time PCR (Q-PCR) were performed on a Bio-Rad CFX96 Real-Time PCR platform by using the GoTaq qPCR Master Mix (Promega). Relative gene expressions were calculated by using ΔΔCt method with Cyclophilin A (cultured cells) or RPL23 (tissues) as the reference gene.

[2] = test system: PgKO-PPARγ1; assay: Adipogenesis in PgKO-PPARγ1 MEF adipocyte model (aP2, Perilipin Q-PCR); format: cell-based, mouse

For `CN(CCOc1ccc(CC2SC(=O)NC2=O)cc1)c1ccccn1` (racemic) [nude Rosi, (RS)-5-[4-(2-[methyl(pyridin-2-yl)amino]ethoxy)benzyl]thiazolidine-2,4-dione], the “brown adipocyte markers Elovl3 and Cidea expression” value [1] was “up-regulate”, the “white adipocyte genes Resistin and Adipsin expression” value [1] was “repress” and the “adipocyte formation (induction of aP2 and Perilipin)” value [2] was “induce adipocyte formation”.
